The target of assay [1] is T1, von Hippel-Lindau disease tumor suppressor/Bcl-2-like protein 1 (Homo sapiens, UniProt Q07817+P40337). Nature of the assay: PROTAC activity at VHL/BCL-XL in human MOLT-4 cells assessed as induction of BCL-XL degradation incubated for 16 hrs by immunoblot analysis. It is filed as cell-based. On the technique in general: Immunoblotting shows a protein as a band on a membrane.
Target sequence in this assay (Q07817 whole entry): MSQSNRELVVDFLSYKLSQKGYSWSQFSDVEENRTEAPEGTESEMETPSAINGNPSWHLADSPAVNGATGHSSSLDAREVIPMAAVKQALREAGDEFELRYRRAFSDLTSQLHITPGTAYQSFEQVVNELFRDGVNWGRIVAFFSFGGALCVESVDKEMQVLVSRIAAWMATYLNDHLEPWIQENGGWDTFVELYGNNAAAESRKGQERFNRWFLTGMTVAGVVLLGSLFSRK
Target sequence in this assay (P40337 whole entry): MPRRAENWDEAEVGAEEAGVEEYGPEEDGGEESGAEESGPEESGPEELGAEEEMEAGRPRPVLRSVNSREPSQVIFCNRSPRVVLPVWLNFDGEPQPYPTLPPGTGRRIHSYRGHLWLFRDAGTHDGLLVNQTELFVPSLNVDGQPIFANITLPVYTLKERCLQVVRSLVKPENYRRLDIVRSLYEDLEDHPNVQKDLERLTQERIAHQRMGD

For assay [2], the target named is T1, von Hippel-Lindau disease tumor suppressor/Bcl-2-like protein 1. Nature of the assay: Protac activity at VHL/BCL-XL in human MOLT-4 cells assessed as induction of protein degradation by measuring maximal degradation relative to control. The assay is classed as cell-based.
Target sequence in this assay (P40337 whole entry, looked up): as the sequence (P40337 whole entry) above
Target sequence in this assay (Q07817 whole entry, looked up): as the sequence (Q07817 whole entry) above
For assay [3], the system named is MOLT-4. Nature of the assay: Anticancer activity against human MOLT-4 cells assessed as reduction in cell viability incubated for 72 hrs by MTS assay. It is filed as functional, cell-based. To be noted: MOLT-4, 72 h.
The target of assay [4] is Apoptosis regulator Bcl-2 (Homo sapiens, UniProt P10415). Nature of the assay: Induction of Bcl2 degradation in HEK293T cells incubated for 16 hrs by immunoblotting analysis. The assay is classed as cell-based.
Apoptosis regulator Bcl-2, sequence (P10415 whole entry): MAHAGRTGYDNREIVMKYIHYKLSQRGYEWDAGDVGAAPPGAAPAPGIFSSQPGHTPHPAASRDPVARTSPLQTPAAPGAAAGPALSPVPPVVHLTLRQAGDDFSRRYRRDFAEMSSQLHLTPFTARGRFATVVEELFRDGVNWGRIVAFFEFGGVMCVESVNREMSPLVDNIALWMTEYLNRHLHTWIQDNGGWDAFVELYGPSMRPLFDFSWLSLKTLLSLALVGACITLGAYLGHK
In another assay the target is Bcl-2-like protein 1 (Homo sapiens, UniProt Q07817). Nature of the assay: Induction of Bcl-xl degradation in HEK293T cells incubated for 16 hrs by immunoblotting analysis. The assay is classed as cell-based.
Bcl-2-like protein 1, sequence (Q07817 whole entry): as the sequence (Q07817 whole entry) above
Assay [5] concerns the target T2, von Hippel-Lindau disease tumor suppressor/Epidermal growth factor receptor (Homo sapiens, UniProt P00533+P40337). Nature of the assay: PROTAC activity at VHL/EGFR del19 mutant in human HCC827 cells assessed as protein degradation incubated for 24 hrs by immunoblot analysis. The assay is classed as cell-based.
Target sequence in this assay (P00533 whole entry, looked up, stated change not applied): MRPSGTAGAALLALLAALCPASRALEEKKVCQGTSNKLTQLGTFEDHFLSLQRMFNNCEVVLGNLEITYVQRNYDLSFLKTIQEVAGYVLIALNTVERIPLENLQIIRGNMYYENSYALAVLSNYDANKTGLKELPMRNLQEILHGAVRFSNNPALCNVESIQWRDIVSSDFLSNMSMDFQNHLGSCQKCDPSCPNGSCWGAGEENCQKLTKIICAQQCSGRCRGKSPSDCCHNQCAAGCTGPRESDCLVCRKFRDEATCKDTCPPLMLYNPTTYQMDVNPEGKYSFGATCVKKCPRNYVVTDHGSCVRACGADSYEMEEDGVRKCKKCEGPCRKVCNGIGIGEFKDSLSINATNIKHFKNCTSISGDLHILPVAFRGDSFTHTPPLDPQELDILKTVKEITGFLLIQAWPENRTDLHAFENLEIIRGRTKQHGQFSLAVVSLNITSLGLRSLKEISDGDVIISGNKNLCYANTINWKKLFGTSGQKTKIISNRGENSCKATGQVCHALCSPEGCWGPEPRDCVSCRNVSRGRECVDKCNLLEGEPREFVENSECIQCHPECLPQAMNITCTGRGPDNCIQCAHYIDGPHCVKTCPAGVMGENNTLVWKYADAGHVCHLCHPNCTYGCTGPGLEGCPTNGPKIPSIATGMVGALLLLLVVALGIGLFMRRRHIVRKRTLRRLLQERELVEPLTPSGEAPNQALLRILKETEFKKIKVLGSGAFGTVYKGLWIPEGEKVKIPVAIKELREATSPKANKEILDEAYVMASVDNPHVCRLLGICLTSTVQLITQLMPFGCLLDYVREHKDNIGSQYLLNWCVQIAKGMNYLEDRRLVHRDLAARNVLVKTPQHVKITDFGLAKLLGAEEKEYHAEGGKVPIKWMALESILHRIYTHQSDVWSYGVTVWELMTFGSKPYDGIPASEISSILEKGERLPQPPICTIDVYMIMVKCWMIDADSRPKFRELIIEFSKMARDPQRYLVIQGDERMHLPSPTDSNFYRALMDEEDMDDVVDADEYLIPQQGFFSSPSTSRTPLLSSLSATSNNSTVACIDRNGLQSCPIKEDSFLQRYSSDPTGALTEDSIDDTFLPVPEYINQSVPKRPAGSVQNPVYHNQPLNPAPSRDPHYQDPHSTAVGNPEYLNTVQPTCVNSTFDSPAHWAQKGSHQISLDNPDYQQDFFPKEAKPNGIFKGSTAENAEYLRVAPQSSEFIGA
Target sequence in this assay (P40337 whole entry, looked up, stated change not applied): as the sequence (P40337 whole entry) above
The subject of assay [6] is von Hippel-Lindau disease tumor suppressor/Epidermal growth factor receptor (Homo sapiens), P00533+P40337 [UNDEFINED MUTATION]. Nature of the assay: PROTAC activity at VHL/EGFR del19 mutant in human HCC827 cells assessed as maximal degradation incubated for 24 hrs by immunoblot analysis relative to control. It is filed as cell-based.
The test system is the same in assay [7]. Nature of the assay: PROTAC activity at VHL/EGFR del19 mutant in human NCI-H3255 cells assessed as maximal degradation incubated for 24 hrs by immunoblot analysis relative to control. It is filed as cell-based.
For assay [8], the target named is T2, von Hippel-Lindau disease tumor suppressor/Epidermal growth factor receptor. Nature of the assay: PROTAC activity at VHL/EGFR del19 mutant in human NCI-H3255 cells assessed as protein degradation incubated for 24 hrs by immunoblot analysis. It is filed as cell-based.
Target sequence in this assay (P00533 whole entry, looked up, stated change not applied): as the sequence (P00533 whole entry, looked up, stated change not applied) above
Target sequence in this assay (P40337 whole entry, looked up, stated change not applied): as the sequence (P40337 whole entry) above
The target is the same in assay [9]. Nature of the assay: PROTAC activity at VHL/wild type EGFR in human OVCAR-8 cells assessed as maximal degradation incubated for 24 hrs by immunoblot analysis relative to control. It is filed as cell-based.
The target is the same in assay [10]. Nature of the assay: PROTAC activity at VHL/wild type EGFR in human OVCAR-8 cells assessed as protein degradation incubated for 24 hrs by immunoblot analysis. The assay is classed as cell-based.
Target sequence in this assay (P00533 whole entry): as the sequence (P00533 whole entry, looked up, stated change not applied) above
Target sequence in this assay (P40337 whole entry): as the sequence (P40337 whole entry) above
The target is the same in assay [11]. Nature of the assay: PROTAC activity at VHL/EGFR Ex20ins mutant in human HeLa cells assessed as protein degradation incubated for 24 hrs by immunoblot analysis. The assay is classed as cell-based.
Target sequence in this assay (P00533 whole entry, looked up, stated change not applied): as the sequence (P00533 whole entry, looked up, stated change not applied) above
Target sequence in this assay (P40337 whole entry, looked up, stated change not applied): as the sequence (P40337 whole entry) above
Assay [12] deals with von Hippel-Lindau disease tumor suppressor/Epidermal growth factor receptor (Homo sapiens), P00533+P40337 [UNDEFINED MUTATION]. Nature of the assay: PROTAC activity at VHL/EGFR Ex20ins mutant in human HeLa cells assessed as maximal degradation incubated for 24 hrs by immunoblot analysis relative to control. The assay is classed as cell-based.
von Hippel-Lindau disease tumor suppressor/Epidermal growth factor receptor (Homo sapiens), P00533+P40337 [UNDEFINED MUTATION], sequence (P00533 whole entry, looked up, stated change not applied): as the sequence (P00533 whole entry, looked up, stated change not applied) above
von Hippel-Lindau disease tumor suppressor/Epidermal growth factor receptor (Homo sapiens), P00533+P40337 [UNDEFINED MUTATION], sequence (P40337 whole entry, looked up, stated change not applied): as the sequence (P40337 whole entry) above
Assay [13] deals with T1, von Hippel-Lindau disease tumor suppressor/Bcl-2-like protein 1. Nature of the assay: PROTAC activity at VHL/BCL-XL in human THP-1 cells assessed as induction of protein degradation by measuring maximal degradation relative to control. It is filed as cell-based.
Target sequence in this assay (P40337 whole entry, looked up): as the sequence (P40337 whole entry) above
Target sequence in this assay (Q07817 whole entry, looked up): as the sequence (Q07817 whole entry) above
For assay [14] the target is unchanged. Nature of the assay: PROTAC activity at VHL/BCL-XL in human THP-1 cells assessed as induction of BCL-XL degradation incubated for 16 hrs by immunoblot analysis. It is filed as cell-based.
Target sequence in this assay (Q07817 whole entry): as above
Target sequence in this assay (P40337 whole entry): as the sequence (P40337 whole entry) above
Assay [15] deals with MOLT-4. Nature of the assay: Antiproliferative activity against human MOLT-4 cells assessed as cell growth inhibition incubated for 72 hrs by Cell Titer-Glo Luminescent assay. It is filed as functional, cell-based. To be noted: MOLT-4, 72 h. (ATP-based viability assays read luminescence as a measure of living cells.)

In general, DC50 refers to the midpoint of the concentration-degradation curve. Broadly, the EC50 is the concentration giving half of the maximal effect.

For `Cc1ncsc1-c1ccc([C@H](C)NC(=O)[C@H]2C[C@H](O)CN2C(=O)[C@@H](NC(=O)CCCCCC(=O)N2CCN(CC[C@H](CSc3ccccc3)Nc3ccc(S(=O)(=O)NC(=O)c4ccc(N5CCN(CC6=C(c7ccc(Cl)cc7)CCC(C)(C)C6)CC5)cc4)cc3S(=O)(=O)C(F)(F)F)CC2)C(C)(C)C)cc1`, the DC50 in assay [1] is 53 nM. The Emax in [2] was determined as 90.8%. For the same molecule, in the assay with MOLT-4 [3], the concentration giving a half-maximal response (EC50) turned out to be 52 nM.
Take `Cc1ncsc1-c1ccc([C@H](C)NC(=O)[C@@H]2C[C@@H](O)CN2C(=O)[C@H](NC(=O)CCCCCCC(=O)N2CCN(C[C@]3(C)CCC(c4ccc(Cl)cc4)=C(CN4CCN(c5ccc(C(=O)NS(=O)(=O)c6ccc(N[C@H](CCN7CCOCC7)CSc7ccccc7)c(S(=O)(=O)C(F)(F)F)c6)cc5)CC4)C3)CC2)C(C)(C)C)cc1`: the values for the DC50 (in assay [4]; at Bcl-2-like protein 1) were 48 nM and 6 nM, respectively.
With `COc1cc2ncnc(Nc3ccc(F)c(Cl)c3)c2cc1OCCCCCOCCOCCC(=O)N[C@@H](C(=O)N1C[C@@H](O)C[C@@H]1C(=O)NCc1ccc(-c2scnc2C)cc1)C(C)(C)C`, the DC50 in [5] is 11.7 nM; in assay [8] it was 22.3 nM. Besides, the Emax worked out at 98.9% in [6] and 96.6% in assay [7].
Consider `Cc1ncsc1-c1ccc(CNC(=O)[C@@H]2C[C@@H](O)CN2C(=O)[C@H](NC(=O)COCCOCCOc2ccc(-c3ccc4ncnc(Nc5ccc(OCc6cccc(F)c6)c(Cl)c5)c4c3)cc2)C(C)(C)C)cc1`, for which the Emax in assay [9] stood at 97.6%; in assay [12], 68.8%. Moreover, the values for the DC50 in [10] and in assay [11] were 39.2 nM and 736 nM, respectively.
As to `Cc1ncsc1-c1ccc(CNC(=O)[C@@H]2C[C@@H](O)CN2C(=O)[C@H](NC(=O)CCOCCOCCOCCOCCOCCOCC#Cc2ccc(OCCCc3sc(N4CCc5cccc(C(=O)Nc6nc7ccccc7s6)c5C4)nc3C(=O)O)cc2)C(C)(C)C)cc1`, in [13], the Emax came out at 76%. For the same molecule, in [14], the half-maximal degradation concentration (DC50) turned out to be 4.8 nM. Moreover, in the assay on MOLT-4 [15], the EC50 came out at 578 nM.
